Values of other authors in US5972639A, “Fluorescence-based assays for measuring cell proliferation” (Irori, priority 1997, dated 1999).

Tests used:
Details in all cases: cited from earlier work
Acid phosphatase = tested on: Acid phosphatase
Alkaline phosphatase = tested on: Alkaline phosphatase
[1] = biological target: Alkaline phosphatase (E. coli) (Escherichia coli, UniProt P00634)
Sequence of Alkaline phosphatase (E. coli) (P00634 22-471): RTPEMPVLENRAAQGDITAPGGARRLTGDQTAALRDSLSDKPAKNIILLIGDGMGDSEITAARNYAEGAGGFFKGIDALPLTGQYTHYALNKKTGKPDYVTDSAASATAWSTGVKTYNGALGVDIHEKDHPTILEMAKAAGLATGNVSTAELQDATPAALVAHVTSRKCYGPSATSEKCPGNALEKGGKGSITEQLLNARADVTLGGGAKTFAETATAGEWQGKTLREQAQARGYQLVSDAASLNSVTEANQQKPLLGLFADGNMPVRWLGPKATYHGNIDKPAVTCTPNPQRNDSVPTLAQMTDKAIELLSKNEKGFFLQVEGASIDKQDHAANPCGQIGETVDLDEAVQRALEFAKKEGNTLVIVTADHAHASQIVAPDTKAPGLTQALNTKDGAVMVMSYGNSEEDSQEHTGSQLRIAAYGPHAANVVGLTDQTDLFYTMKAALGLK

COC(=O)CCSP(=O)(O)O [S-[2-(Methoxy-carboxyl)ehtyl] phosphorothioate]
Acid phosphatase, products identified (Acid phosphatase): No cleavage
Alkaline phosphatase, products identified (Alkaline phosphatase): d, ^32 Pi

CC(=O)NCCSP(=O)(O)O [N-Acetylcysteamine S-phosphate]
Acid phosphatase, products identified (Acid phosphatase): No cleavage
Alkaline phosphatase, products identified (Alkaline phosphatase): N-Acetylcysteamine

O=[N+]([O-])c1ccc(OP(=O)(O)O)cc1 [p-NPP, p-nitrophenyl phosphate]
Km [1]: 94 µM
